Laboratory results taken from ChEMBL document CHEMBL1909046, “DrugMatrix in vitro pharmacology data”.

Assays:
[1] = DRUGMATRIX: Calcium Channel Type L, Dihydropyridine radioligand binding (ligand: [3H] Nitrendipine); type: cell membranes, Rattus norvegicus, Wistar, Cerebral cortex, Membrane; conditions: Not Active = under 50% inhibition at 10 µM
[2] = molecular target: Beta-2 adrenergic receptor (Homo sapiens, UniProt P07550); test: DRUGMATRIX: Adrenergic beta2 radioligand binding (ligand: [3H] CGP-12177); type: cell membranes, Membrane; conditions: cho; Not Active = under 50% inhibition at 10 µM
Adenosine receptor A1 = molecular target: T1, Adenosine receptor A1 (Homo sapiens, UniProt P30542); type: cell membranes, CHO, Membrane;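 further: radioligand binding assay at the adenosine A1 receptor, with DPCPX serving as the labelled ligand; in other assays of this panel Not Active means under 50% inhibition at 10 µM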
T1 sequence (P30542 whole entry): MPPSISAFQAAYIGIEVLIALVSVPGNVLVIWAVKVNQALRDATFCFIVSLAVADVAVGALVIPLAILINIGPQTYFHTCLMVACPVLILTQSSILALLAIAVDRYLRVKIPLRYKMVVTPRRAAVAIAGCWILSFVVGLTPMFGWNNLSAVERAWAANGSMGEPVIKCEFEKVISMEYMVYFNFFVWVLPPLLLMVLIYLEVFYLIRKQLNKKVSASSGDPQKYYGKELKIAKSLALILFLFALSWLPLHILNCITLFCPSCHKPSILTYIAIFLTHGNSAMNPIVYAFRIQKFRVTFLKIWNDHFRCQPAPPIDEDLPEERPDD

[3] = DRUGMATRIX: GABAA, Chloride Channel, TBOB radioligand binding (ligand: [3H] TBOB); type: cell membranes, Rattus norvegicus, Wistar, Cerebral cortex, Membrane; conditions: Not Active = under 50% inhibition at 10 µM
[4] = DRUGMATRIX: Sodium/nucleoside co-transporter radioligand binding (ligand: nitrobenzylthioinosine); type: cell membranes, Cavia porcellus, Dunkin-Hartley, Cerebral cortex, Membrane; conditions: Not Active = under 50% inhibition at 10 µM
[5] = molecular target: T2, C-C chemokine receptor type 4 (Homo sapiens, UniProt P51679); type: cell membranes, Chem-1, Membrane; further: in other assays of this panel Not Active means under 50% inhibition at 10 µM
T2 sequence (P51679 whole entry): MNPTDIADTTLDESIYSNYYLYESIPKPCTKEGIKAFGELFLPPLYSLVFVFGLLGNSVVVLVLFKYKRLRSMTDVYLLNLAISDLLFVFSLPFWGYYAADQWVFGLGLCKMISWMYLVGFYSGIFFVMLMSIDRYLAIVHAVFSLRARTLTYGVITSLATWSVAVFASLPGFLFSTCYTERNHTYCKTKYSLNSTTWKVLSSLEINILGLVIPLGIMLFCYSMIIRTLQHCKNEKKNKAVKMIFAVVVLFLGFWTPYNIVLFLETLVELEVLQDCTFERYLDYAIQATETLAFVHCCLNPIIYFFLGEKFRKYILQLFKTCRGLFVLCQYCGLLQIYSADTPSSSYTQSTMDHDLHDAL

Sequence of Beta-2 adrenergic receptor (P07550 whole entry): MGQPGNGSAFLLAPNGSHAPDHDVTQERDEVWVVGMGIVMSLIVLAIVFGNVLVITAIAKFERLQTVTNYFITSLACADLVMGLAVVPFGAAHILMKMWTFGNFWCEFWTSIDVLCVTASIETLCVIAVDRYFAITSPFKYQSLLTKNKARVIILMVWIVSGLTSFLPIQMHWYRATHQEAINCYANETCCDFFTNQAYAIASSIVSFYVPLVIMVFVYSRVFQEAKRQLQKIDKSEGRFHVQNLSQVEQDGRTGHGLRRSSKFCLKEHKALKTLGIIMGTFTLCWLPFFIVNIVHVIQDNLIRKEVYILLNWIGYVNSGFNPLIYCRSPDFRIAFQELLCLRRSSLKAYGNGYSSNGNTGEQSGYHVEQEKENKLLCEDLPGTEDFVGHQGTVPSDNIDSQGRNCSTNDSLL

Row | Compound | IC50 [1] | Ki [1] | IC50 [2] | IC50 (Adenosine receptor A1; cho) | IC50 [3] | Ki [3] | IC50 [4] | Ki [4] | IC50 ([5]; chem-1) | IC50 ([5]; read-out: IC50) | Ki ([5]; read-out: Ki) | IC50 ([4]; read-out: IC50) | Ki ([4]; read-out: Ki) | IC50 (Adenosine receptor A1; read-out: IC50) | Ki (Adenosine receptor A1; read-out: Ki) | IC50 ([1]; read-out: IC50) | Ki ([1]; read-out: Ki)
1 | CC(C)(C)NC(=O)[C@@H]1C[C@@H]2CCCC[C@@H]2CN1C[C@@H](O)[C@H](Cc1ccccc1)NC(=O)[C@H](CC(N)=O)NC(=O)c1ccc2ccccc2n1 | Not Active | Not Active | Not Active | Not Active | Not Active | Not Active | Not Active | Not Active | Not Active | – | – | – | – | – | – | – | –
2 | CC(=O)[C@@]1(O)CC[C@H]2[C@@H]3C[C@H](C)C4=CC(=O)CC[C@]4(C)[C@H]3CC[C@@]21C | Not Active | Not Active | Not Active | Not Active | Not Active | Not Active | Not Active | Not Active | Not Active | – | – | – | – | – | – | – | –
3 | N[C@@H](Cc1ccc(N(CCCl)CCCl)cc1)C(=O)O | Not Active | Not Active | Not Active | Not Active | Not Active | Not Active | Not Active | Not Active | Not Active | – | – | – | – | – | – | – | –
4 | CCCCc1oc2ccccc2c1C(=O)c1cc(I)c(OCCN(CC)CC)c(I)c1 [AMIODARONE] | – | – | Not Active | Not Active | – | – | – | – | – | 21.8 µM | 11.4 µM | – | – | – | – | – | –
5 | OCCN(CCO)c1nc(N2CCCCC2)c2nc(N(CCO)CCO)nc(N3CCCCC3)c2n1 [DIPYRIDAMOLE] | Not Active | Not Active | Not Active | Not Active | Not Active | Not Active | – | – | Not Active | – | – | 0.083 µM | 0.029 µM | – | – | – | –
6 | Cc1oncc1C(=O)Nc1ccc(C(F)(F)F)cc1 [LEFLUNOMIDE] | Not Active | Not Active | Not Active | Not Active | Not Active | Not Active | – | – | Not Active | – | – | 15.1 µM | 5.16 µM | – | – | – | –
7 | c1ccc([C@H]2CN3CCSC3=N2)cc1 [LEVAMISOLE] | Not Active | Not Active | Not Active | Not Active | Not Active | Not Active | Not Active | Not Active | Not Active | – | – | – | – | – | – | – | –
8 | N[C@@H](Cc1ccc(O)c(O)c1)C(=O)O [LEVODOPA] | Not Active | Not Active | Not Active | Not Active | Not Active | Not Active | Not Active | Not Active | Not Active | – | – | – | – | – | – | – | –
9 | N[C@@H](Cc1cc(I)c(Oc2ccc(O)c(I)c2)c(I)c1)C(=O)O [LIOTHYRONINE] | – | – | Not Active | – | – | – | – | – | Not Active | – | – | – | – | 0.411 µM | 0.24 µM | – | –
10 | O=NN(CCCl)C(=O)NC1CCCCC1 [LOMUSTINE] | Not Active | Not Active | Not Active | Not Active | Not Active | Not Active | Not Active | Not Active | Not Active | – | – | – | – | – | – | – | –
11 | CCOC(=O)N1CCC(=C2c3ccc(Cl)cc3CCc3cccnc32)CC1 [LORATADINE] | Not Active | Not Active | Not Active | Not Active | Not Active | Not Active | Not Active | Not Active | Not Active | – | – | – | – | – | – | – | –
12 | Cn1ccnc1S [METHIMAZOLE] | Not Active | Not Active | Not Active | Not Active | Not Active | Not Active | Not Active | Not Active | Not Active | – | – | – | – | – | – | – | –
13 | CC[C@@H](CO)NC(=O)[C@@H]1C=C2c3cccc4[nH]cc(c34)C[C@H]2N(C)C1 [METHYLERGONOVINE] | Not Active | Not Active | Not Active | Not Active | Not Active | Not Active | Not Active | Not Active | Not Active | – | – | – | – | – | – | – | –
14 | COc1nc(C)nc(Cl)c1NC1=NCCN1 [MOXONIDINE] | Not Active | Not Active | Not Active | Not Active | Not Active | Not Active | Not Active | Not Active | Not Active | – | – | – | – | – | – | – | –
15 | COc1c(C)c2c(c(O)c1C/C=C(\C)CCC(=O)O)C(=O)OC2 [MYCOPHENOLIC ACID] | Not Active | Not Active | Not Active | Not Active | Not Active | Not Active | Not Active | Not Active | Not Active | – | – | – | – | – | – | – | –
16 | O=c1ncn2nc(Sc3ccc(F)cc3F)ccc2c1-c1c(Cl)cccc1Cl [NEFLAMAPIMOD] | – | – | Not Active | Not Active | Not Active | Not Active | Not Active | Not Active | Not Active | – | – | – | – | – | – | 38.9 µM | 25 µM
17 | CN1CCN(CCCN2c3ccccc3Sc3ccc(Cl)cc32)CC1 [PROCHLORPERAZINE] | – | – | Not Active | Not Active | – | – | – | – | Not Active | – | – | – | – | – | – | – | –
18 | CO[C@H]1/C=C/O[C@@]2(C)Oc3c(C)c(O)c4c(O)c(c(/C=N/N5CCN(C)CC5)c(O)c4c3C2=O)NC(=O)/C(C)=C\C=C\[C@H](C)[C@H](O)[C@@H](C)[C@@H](O)[C@@H](C)[C@H](OC(C)=O)[C@@H]1C [RIFAMPIN] | Not Active | Not Active | Not Active | Not Active | Not Active | Not Active | Not Active | Not Active | Not Active | – | – | – | – | – | – | – | –
19 | Nc1nc2ccc(OC(F)(F)F)cc2s1 [RILUZOLE] | Not Active | Not Active | Not Active | Not Active | Not Active | Not Active | Not Active | Not Active | Not Active | – | – | – | – | – | – | – | –
20 | Cc1nc2n(c(=O)c1CCN1CCC(c3noc4cc(F)ccc34)CC1)CCCC2 [RISPERIDONE] | – | – | Not Active | Not Active | – | – | – | – | Not Active | – | – | – | – | – | – | – | –
21 | C=CCC1(C(C)CCC)C(=O)NC(=O)NC1=O (stereo unspecified) [SECOBARBITAL] | Not Active | Not Active | Not Active | Not Active | Not Active | Not Active | Not Active | Not Active | Not Active | – | – | – | – | – | – | – | –
22 | C[C@@H]1CN(c2c(F)c(N)c3c(=O)c(C(=O)O)cn(C4CC4)c3c2F)C[C@H](C)N1 [SPARFLOXACIN] | Not Active | Not Active | Not Active | Not Active | Not Active | Not Active | Not Active | Not Active | Not Active | – | – | – | – | – | – | – | –
23 | Cc1noc(NS(=O)(=O)c2ccc(N)cc2)c1C [SULFISOXAZOLE] | Not Active | Not Active | Not Active | Not Active | Not Active | Not Active | Not Active | Not Active | Not Active | – | – | – | – | – | – | – | –
24 | CSc1ccc(/C=C2/C(C)=C(CC(=O)O)c3cc(F)ccc32)cc1 [SULINDAC SULFIDE] | Not Active | Not Active | Not Active | Not Active | Not Active | Not Active | Not Active | Not Active | Not Active | – | – | – | – | – | – | – | –
25 | Nc1c2c(nc3ccccc13)CCCC2 [TACRINE] | Not Active | Not Active | Not Active | Not Active | Not Active | Not Active | Not Active | Not Active | Not Active | – | – | – | – | – | – | – | –
26 | CC/C(=C(\c1ccccc1)c1ccc(OCCN(C)C)cc1)c1ccccc1 [TAMOXIFEN] | – | – | Not Active | – | – | – | – | – | Not Active | – | – | – | – | – | – | – | –
27 | CC(C)N1CCN(c2ccc(OCC3COC(Cn4cncn4)(c4ccc(Cl)cc4Cl)O3)cc2)CC1 (stereo unspecified) [TERCONAZOLE] | Not Active | Not Active | Not Active | Not Active | Not Active | Not Active | – | – | Not Active | – | – | 12.4 µM | 4.24 µM | – | – | – | –
28 | Nc1nc2nc[nH]c2c(=S)[nH]1 [THIOGUANINE] | Not Active | Not Active | Not Active | Not Active | Not Active | Not Active | Not Active | Not Active | Not Active | – | – | – | – | – | – | – | –
29 | Cc1cccc(N(C)C(=S)Oc2ccc3ccccc3c2)c1 [TOLNAFTATE] | Not Active | Not Active | Not Active | Not Active | Not Active | Not Active | Not Active | Not Active | Not Active | – | – | – | – | – | – | – | –
30 | NC[C@H]1CC[C@H](C(=O)O)CC1 [TRANEXAMIC ACID] | Not Active | Not Active | Not Active | Not Active | Not Active | Not Active | Not Active | Not Active | Not Active | – | – | – | – | – | – | – | –
